Results on 5 molecules are retold here after patent US20250120967A1, “TYROSINE KINASES INHIBITORS AND USES THEREOF” (GREAT NOVEL THERAPEUTICS BIOTECH & MEDICALS CORPORATION, priority 2023, published 2025).

What all share (assay): Tyrosine kinase inhibition assay
Common to all, as to assay type: biochemical
Holding throughout (details): single concentration 1.0 μM, read-out: percent inhibition

For one assay, the target named is T1, EPHA8 (Homo sapiens, UniProt P29322).
T1 sequence (P29322 28-1005): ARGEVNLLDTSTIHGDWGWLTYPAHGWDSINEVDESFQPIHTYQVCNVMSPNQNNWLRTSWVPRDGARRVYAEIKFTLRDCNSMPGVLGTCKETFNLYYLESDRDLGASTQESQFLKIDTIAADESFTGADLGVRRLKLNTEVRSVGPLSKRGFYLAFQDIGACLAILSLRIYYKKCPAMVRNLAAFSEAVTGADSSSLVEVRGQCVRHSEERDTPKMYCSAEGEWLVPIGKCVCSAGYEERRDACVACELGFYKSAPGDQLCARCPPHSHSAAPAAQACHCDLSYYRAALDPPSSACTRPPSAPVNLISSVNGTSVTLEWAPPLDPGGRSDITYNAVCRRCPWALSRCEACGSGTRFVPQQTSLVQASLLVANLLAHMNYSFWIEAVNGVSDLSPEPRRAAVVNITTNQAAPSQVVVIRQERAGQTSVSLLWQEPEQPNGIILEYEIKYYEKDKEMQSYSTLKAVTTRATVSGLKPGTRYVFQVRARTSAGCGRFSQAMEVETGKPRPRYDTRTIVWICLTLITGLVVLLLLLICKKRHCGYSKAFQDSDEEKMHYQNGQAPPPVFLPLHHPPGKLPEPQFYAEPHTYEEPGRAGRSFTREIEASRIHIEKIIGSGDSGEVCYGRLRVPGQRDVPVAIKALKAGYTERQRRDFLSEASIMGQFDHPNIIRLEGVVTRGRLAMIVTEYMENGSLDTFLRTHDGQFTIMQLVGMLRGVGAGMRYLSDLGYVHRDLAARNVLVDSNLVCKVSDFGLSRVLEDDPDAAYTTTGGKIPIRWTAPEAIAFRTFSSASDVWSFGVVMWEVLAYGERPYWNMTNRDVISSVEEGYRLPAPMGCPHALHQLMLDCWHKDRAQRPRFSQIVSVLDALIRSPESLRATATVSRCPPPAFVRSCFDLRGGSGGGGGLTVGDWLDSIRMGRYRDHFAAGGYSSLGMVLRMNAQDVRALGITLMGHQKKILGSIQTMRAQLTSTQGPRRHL
As to the method: (§1) Tyrosine kinase inhibition assays were performed at ThermoFisher Life Technologies (Madison, WI, USA) using standard protocols (SelectScreen Biochemical Profiling Service, Thermo Fisher Scientific). ATP concentrations used were at the apparent Km. Test compounds were screened in 1% dimethylsulffoxide (DMSO) (final concentration) in the well. For 10-point titrations, 3-fold serial dilutions were conducted from the starting concentration of […]. All Peptide/Kinase Mixtures were diluted to a 2× working concentration in the appropriate Kinase Buffer. All ATP Solutions were diluted to a 4× working concentration in Kinase Buffer (50 mM HEPES pH 7.5, 0.01% BRIJ-35, 10 mM MgCl2, 1 mM EGTA). The apparent ATP Km was previously determined using a Z′-LYTE assay. The Development Reagent was diluted in Development Buffer.
(§2) The inhibition activities of compounds were determined in biochemical assays using single concentration (1.0 μM) measurements. The results were provided as percent inhibition values. A compound displaying a percent inhibition value of greater 80% was defined as a hit. 99 different tyrosine kinases were used.

Another assay addresses PEAK1 (Homo sapiens, UniProt Q9H792). Here is the method:
as §1, §2

For another assay, the target named is FYN A (Homo sapiens, UniProt P06241). As to the method: as §1, §2
In the next assay the target is T2, BMX (Homo sapiens, UniProt P51813).
T2 sequence (P51813 1-675): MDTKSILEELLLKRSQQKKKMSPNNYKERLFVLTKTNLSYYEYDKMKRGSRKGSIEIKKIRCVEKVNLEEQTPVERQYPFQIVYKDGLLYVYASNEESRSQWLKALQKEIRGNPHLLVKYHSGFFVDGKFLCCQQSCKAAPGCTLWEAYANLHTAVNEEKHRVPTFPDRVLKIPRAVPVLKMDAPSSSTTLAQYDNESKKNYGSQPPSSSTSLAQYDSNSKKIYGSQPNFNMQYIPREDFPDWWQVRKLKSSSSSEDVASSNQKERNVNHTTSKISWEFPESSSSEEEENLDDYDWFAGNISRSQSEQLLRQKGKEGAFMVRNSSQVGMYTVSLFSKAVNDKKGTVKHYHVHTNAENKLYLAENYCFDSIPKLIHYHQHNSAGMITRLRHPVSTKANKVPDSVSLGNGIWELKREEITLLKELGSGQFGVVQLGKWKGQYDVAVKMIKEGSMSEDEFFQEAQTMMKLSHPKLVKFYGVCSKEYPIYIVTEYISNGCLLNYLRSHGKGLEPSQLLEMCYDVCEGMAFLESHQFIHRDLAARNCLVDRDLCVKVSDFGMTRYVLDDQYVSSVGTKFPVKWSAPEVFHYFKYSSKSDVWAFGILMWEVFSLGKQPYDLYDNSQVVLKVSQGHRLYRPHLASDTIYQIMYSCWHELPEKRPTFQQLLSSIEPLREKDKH
Here is the method:
as §1, §2

Another assay addresses T3, MATK (HYL) (Homo sapiens, UniProt P42679).
T3 sequence (P42679 1-507): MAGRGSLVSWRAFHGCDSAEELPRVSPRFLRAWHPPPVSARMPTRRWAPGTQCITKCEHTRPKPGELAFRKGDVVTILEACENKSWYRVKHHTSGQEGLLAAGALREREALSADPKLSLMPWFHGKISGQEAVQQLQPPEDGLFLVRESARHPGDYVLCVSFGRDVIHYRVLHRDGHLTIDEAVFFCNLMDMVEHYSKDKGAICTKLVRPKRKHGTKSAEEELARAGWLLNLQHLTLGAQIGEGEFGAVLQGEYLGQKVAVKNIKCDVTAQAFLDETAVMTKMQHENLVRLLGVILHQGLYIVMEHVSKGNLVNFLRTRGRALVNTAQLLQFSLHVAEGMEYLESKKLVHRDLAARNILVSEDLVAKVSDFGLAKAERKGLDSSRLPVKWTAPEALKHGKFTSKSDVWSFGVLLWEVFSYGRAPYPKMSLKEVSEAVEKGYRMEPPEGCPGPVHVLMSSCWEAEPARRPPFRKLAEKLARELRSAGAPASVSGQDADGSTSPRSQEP
As to the method:
as §1, §2

A further assay concerns the target AKT1 (PKB alpha) (Homo sapiens, UniProt P31749). As to the method: as §1, §2
The next assay deals with EPHA4 (Homo sapiens, UniProt P54764). Here is the method: as §1, §2
For another assay, the target named is DDR1 (Homo sapiens, UniProt Q08345). As to the method:
as §1, §2

Chain of EPHA4 (P54764 20-986): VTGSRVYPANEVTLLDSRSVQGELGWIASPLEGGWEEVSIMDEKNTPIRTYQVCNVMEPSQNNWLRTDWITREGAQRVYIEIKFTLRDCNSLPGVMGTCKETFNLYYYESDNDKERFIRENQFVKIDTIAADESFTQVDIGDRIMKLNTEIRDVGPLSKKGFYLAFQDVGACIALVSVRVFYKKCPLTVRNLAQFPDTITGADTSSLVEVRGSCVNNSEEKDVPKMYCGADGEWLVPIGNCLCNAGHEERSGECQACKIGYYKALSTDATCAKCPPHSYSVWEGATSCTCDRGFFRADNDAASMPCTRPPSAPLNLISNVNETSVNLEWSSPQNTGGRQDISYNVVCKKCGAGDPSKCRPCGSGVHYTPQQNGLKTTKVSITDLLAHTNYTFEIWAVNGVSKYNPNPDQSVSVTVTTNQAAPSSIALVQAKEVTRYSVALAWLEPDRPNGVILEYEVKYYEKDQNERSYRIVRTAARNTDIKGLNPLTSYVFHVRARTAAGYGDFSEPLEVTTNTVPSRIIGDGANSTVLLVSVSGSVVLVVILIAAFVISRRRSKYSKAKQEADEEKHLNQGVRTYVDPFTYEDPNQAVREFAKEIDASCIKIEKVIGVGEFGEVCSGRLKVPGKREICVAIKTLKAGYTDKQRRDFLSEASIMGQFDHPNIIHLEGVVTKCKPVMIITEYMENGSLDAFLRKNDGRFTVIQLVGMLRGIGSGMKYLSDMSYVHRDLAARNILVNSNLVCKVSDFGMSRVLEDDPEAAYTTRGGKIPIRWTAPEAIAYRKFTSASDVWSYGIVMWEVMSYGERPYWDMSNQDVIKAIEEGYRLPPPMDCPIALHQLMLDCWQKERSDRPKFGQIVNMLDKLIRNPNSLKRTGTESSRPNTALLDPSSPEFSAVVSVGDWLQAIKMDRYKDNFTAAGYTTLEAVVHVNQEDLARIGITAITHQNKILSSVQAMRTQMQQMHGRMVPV
Chain of FYN A (P06241 whole entry): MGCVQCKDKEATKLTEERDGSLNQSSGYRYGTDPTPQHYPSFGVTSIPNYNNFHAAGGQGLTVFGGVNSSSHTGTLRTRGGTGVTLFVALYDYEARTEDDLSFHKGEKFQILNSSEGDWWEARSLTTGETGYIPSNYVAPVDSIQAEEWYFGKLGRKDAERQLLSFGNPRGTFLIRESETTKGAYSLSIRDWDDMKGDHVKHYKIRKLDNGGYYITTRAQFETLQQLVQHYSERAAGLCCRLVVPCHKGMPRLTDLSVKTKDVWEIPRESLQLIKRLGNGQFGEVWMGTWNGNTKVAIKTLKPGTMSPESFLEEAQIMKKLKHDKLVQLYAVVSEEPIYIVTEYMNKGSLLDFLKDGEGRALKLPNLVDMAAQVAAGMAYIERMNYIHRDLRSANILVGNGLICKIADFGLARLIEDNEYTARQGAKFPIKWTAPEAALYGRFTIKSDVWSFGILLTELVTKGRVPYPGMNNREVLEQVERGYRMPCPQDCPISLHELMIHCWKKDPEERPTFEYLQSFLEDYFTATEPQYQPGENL
Chain of PEAK1 (Q9H792 whole entry): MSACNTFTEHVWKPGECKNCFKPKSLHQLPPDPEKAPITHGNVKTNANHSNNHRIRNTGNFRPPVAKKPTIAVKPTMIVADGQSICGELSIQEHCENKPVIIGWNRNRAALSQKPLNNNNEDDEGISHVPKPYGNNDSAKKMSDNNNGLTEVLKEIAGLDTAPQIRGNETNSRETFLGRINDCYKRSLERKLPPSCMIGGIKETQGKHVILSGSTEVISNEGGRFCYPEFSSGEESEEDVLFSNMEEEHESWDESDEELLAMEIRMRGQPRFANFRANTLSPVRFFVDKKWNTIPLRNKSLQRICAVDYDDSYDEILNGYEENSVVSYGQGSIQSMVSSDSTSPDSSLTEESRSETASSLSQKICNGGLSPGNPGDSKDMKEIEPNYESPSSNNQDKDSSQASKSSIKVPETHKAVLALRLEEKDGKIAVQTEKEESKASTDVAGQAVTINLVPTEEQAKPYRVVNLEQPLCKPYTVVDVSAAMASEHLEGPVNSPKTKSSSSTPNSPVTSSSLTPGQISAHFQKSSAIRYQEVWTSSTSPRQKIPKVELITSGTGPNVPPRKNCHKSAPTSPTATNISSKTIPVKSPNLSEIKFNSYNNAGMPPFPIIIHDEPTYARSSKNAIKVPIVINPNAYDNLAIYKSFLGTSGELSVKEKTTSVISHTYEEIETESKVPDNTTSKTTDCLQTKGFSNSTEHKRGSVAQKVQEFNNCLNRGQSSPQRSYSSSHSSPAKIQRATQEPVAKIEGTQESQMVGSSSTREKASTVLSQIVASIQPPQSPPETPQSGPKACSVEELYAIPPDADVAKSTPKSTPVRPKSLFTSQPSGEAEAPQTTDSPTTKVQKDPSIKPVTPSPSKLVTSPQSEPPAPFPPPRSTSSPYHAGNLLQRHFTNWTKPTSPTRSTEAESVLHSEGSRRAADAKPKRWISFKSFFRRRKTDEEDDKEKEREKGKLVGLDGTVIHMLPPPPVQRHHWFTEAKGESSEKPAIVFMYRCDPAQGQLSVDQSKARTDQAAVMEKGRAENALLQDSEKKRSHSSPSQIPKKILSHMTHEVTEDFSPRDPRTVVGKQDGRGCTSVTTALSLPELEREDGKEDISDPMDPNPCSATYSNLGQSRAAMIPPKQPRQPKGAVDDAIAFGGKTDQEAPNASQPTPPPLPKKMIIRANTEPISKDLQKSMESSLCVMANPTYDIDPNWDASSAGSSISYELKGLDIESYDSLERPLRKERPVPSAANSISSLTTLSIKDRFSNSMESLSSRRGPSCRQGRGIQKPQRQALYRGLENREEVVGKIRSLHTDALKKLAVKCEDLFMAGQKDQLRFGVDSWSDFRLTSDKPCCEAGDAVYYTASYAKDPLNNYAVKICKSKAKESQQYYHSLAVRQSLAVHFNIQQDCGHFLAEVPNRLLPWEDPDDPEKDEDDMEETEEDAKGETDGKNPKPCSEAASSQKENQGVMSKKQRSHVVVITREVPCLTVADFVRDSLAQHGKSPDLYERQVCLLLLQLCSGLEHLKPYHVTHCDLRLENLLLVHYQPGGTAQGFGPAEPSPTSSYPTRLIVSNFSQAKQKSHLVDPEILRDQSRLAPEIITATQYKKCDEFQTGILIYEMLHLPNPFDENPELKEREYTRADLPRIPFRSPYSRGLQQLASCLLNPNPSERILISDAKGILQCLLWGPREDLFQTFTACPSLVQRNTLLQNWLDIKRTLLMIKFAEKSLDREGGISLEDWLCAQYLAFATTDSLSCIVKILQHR
Chain of DDR1 (Q08345 19-913): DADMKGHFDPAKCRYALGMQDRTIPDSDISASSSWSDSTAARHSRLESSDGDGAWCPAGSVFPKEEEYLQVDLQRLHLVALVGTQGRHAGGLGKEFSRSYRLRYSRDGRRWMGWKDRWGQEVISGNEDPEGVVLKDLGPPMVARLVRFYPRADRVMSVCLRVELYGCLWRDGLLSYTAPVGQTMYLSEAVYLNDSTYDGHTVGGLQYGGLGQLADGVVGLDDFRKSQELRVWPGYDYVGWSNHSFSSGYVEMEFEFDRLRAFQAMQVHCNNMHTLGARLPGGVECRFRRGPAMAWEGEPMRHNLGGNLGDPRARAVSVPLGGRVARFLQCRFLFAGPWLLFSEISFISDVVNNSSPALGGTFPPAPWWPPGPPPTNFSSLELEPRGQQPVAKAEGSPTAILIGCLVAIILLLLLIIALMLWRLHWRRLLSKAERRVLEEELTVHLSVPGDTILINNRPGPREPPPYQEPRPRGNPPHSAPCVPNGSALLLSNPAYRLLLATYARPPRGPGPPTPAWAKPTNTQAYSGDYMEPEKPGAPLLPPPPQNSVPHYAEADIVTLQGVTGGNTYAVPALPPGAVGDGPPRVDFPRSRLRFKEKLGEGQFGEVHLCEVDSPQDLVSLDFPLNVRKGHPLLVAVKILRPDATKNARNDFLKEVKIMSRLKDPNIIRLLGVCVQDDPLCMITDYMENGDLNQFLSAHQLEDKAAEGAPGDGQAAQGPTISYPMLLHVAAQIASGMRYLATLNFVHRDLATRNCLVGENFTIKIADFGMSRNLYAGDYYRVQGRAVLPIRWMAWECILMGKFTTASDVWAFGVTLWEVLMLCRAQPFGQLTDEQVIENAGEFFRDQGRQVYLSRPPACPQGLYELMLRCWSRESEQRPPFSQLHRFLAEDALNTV
Chain of AKT1 (PKB alpha) (P31749 whole entry): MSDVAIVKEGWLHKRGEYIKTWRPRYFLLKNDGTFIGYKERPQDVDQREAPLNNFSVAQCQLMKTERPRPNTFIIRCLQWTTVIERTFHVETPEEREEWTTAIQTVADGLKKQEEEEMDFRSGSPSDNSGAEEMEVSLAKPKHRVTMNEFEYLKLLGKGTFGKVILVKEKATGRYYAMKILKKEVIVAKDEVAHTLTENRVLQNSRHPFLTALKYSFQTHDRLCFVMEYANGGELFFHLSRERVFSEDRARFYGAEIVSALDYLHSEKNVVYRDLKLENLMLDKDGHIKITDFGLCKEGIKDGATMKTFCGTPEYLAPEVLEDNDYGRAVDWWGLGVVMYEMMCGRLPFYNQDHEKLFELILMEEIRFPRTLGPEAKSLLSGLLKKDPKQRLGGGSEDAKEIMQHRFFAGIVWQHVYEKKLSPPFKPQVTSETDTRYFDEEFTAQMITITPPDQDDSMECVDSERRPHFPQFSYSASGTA

The term inhibition denotes the change of the read-out against control, counted positive when it falls. With `COc1cc2nccc(Oc3ccc(NC(=O)C4(C(=O)Nc5ccc(F)cc5)CC4)cc3)c2cc1OC` [Cabozantinib, reference compound], the inhibition at 1 µM on EPHA8 was found to be 104%; at PEAK1, 85%; at FYN A, 74%; on BMX, 36%; on MATK (HYL) it was 10%; on AKT1 (PKB alpha), 3%. In addition, the inhibition at 1 µM at EPHA4 and on DDR1 was 100% throughout.
Turning to `COc1cc2nccc(Oc3ccc(NC(=O)C4(C(=O)Nc5ccc(F)cc5)CC4)cc3F)c2cc1Oc1ccc(N)cc1F` [Cbo-23], the inhibition at 1 µM at EPHA8 was 100%; at FYN A, 70%; at BMX it was 42%; at MATK (HYL), 8%; at AKT1 (PKB alpha), 4%; at EPHA4, 100%. Moreover, on DDR1, the inhibition at 1 µM amounted to 92%.
`COc1cc2nccc(Oc3ccc(NC(=O)C4(NC(=O)c5ccc(F)cc5)CC4)cc3F)c2cc1Oc1ccc(N)cc1F` [Cbo-10]: the inhibition at 1 µM amounted to 76% at EPHA8; 55% at PEAK1; 47% at FYN A; 33% at BMX; 5% on MATK (HYL); 0% on AKT1 (PKB alpha). Besides, the results for the inhibition at 1 µM at EPHA4 and on DDR1 were 91% and 50%, respectively.
As for `COc1cc2nccc(Oc3ccc(NC(=O)C4(NC(=O)c5ccc(F)cc5)CC4)cc3F)c2cc1OC` [Cbo-02, N-(1-((4-((6,7-diMethoxyquinolin-4-yl)oxy)-3-fluorophenyl)carbamoyl)cyclopropyl)-4-fluorobenzamide], the inhibition at 1 µM at EPHA8 is 42%; at PEAK1 it was 38%; on FYN A, 30%; on BMX, 22%; on MATK (HYL), 7%; on AKT1 (PKB alpha) it was 2%. Also, the values for the inhibition at 1 µM on EPHA4 and at DDR1 were 79% and 51%, respectively.
Take `COc1cc2nccc(Oc3ccc(NC(=O)C4(NC(=O)c5ccc(F)cc5)CC4)cc3F)c2cc1Oc1c(F)cc(N)cc1F` [Cbo-14]: the inhibition at 1 µM on EPHA8 worked out at 82%; on PEAK1, 64%; at FYN A, 57%; on BMX, 42%; on MATK (HYL), 8%; on AKT1 (PKB alpha), 2%. Further, the inhibition at 1 µM on EPHA4 was 89%; at DDR1 it was 53%.
